# Data taken from patent US20150087673A1, “METHODS FOR USING AND BIOMARKERS FOR AMPK-ACTIVATING COMPOUNDS” (RIGEL PHARMACEUTICALS, INC., priority 2013, published 2015).
# Tested on: AMPK
# Test: AMPK activation assay (enzyme-linked immunosorbent assay)
# Type: cell-based
# In short: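 Kit-based immunoassay; compounds screened as activators; standard reagents and protocol.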
row,SMILES,EC50 [nM]
1,"COc1cccc(Oc2ccc(NC(=O)c3ccc(C(=O)N4CCN(Cc5ccc(F)cc5)CC4)cn3)cc2)c1 [Compound 57, 5-(4-(4-fluorobenzyl)piperazine-1-carbonyl)-N-(4-(3-methoxyphenoxy)phenyl)picolinamide]",< 500
2,"O=C(Nc1ccc(Oc2ccc(F)cc2)nc1)c1ccc(C(=O)N2CCC(C(=O)c3ccc(F)cc3)CC2)cn1 [Compound 272, 5-(4-(4-fluorobenzoyl)piperidine-1-carbonyl)-N-(6-(4-fluorophenoxy)pyridin-3-yl)picolinamide]",< 500
3,"COc1ccc(OC2CCN(C(=O)c3ccc(C(=O)N[C@H]4CC[C@@H](Oc5ccc(OC)cc5)CC4)nc3)CC2)cc1 [Compound 186, N-((cis)-4-(4-methoxyphenoxy)cyclohexyl)-5-(4-(4-methoxyphenoxy)piperidine-1-carbonyl)picolinamide]",< 500
4,"COc1ccc(C(=O)C2CCN(C(=O)c3ccc(C(=O)NC4CCN(Cc5ccc(C#N)cc5)CC4)nc3)CC2)cc1 [Compound 129, N-(1-(4-cyanobenzyl)piperidin-4-yl)-5-(4-(4-methoxybenzoyl)piperidine-1-carbonyl)picolinamide]",< 500
5,"O=C(NC1CCN(Cc2ccccc2)CC1)c1ccc(Nc2ccc(Oc3ccccc3)cc2)cn1 [Compound 113, N-(1-benzylpiperidin-4-yl)-5-(4-phenoxyphenylamino)picolinamide]",1000 to 5000
6,"N#Cc1ccc(OC2CCN(C(=O)c3ccc(C(=O)NC4CCN(Cc5cc(F)cc(F)c5)CC4)nc3)CC2)cc1 [Compound 289, 5-(4-(4-cyanophenoxy)piperidine-1-carbonyl)-N-(1-(3,5-difluorobenzyl)piperidin-4-yl)picolinamide]",< 500
7,"CN(C)C(=O)c1ccc(Oc2ccc(NC(=O)c3ccc(C(=O)N4CCC(C(=O)c5ccc(F)cc5F)CC4)nc3)cn2)cc1 [Compound 481, 6-(4-(2,4-difluorobenzoyl)piperidine-1-carbonyl)-N-(6-(4-(dimethylcarbamoyl)phenoxy)pyridin-3-yl)nicotinamide]",< 500
8,"COc1ccc(C(=O)C2CCN(C(=O)c3ccc(C(=O)NC4CCN(Cc5ccc(F)cc5)CC4)cn3)CC2)cc1 [Compound 317, N-(1-(4-fluorobenzyl)piperidin-4-yl)-6-(4-(4-methoxybenzoyl)piperidine-1-carbonyl)nicotinamide]",< 500
9,"N#Cc1ccc(CN2CCC(NC(=O)c3ccc(C(=O)Nc4cccc(Cc5ccccc5)c4)cn3)CC2)cc1 [Compound 5, N^2-(1-(4-cyanobenzyl)piperidin-4-yl)-N^5-(3-benzylphenyl)pyridine-2,5-dicarboxamide]",500 to 1000
10,"O=C(c1ccc(C(=O)N2CCN(Cc3ccc(F)cc3)CC2)nc1)N1CCN(Cc2ccc(F)cc2)CC1 [Compound 3, pyridine-2,5-diylbis((4-(4-fluorobenzyl)piperazin-1-yl)methanone)]",500 to 1000
11,"CC(C)(C)OC(=O)N1CCC(NC(=O)c2ccc(C(=O)N3CCC(Oc4ccc(C#N)cc4)CC3)nc2)CC1 [Compound 333, tert-butyl 4-(6-(4-(4-cyanophenoxy)piperidine-1-carbonyl)nicotinamido) piperidine-1-carboxylate]",< 500
12,"O=C(NC1CCN(Cc2ccccc2)CC1)c1ccc(C(=O)N2CCN(Cc3ccccc3)CC2)cn1 [Compound 72, 5-(4-benzylpiperazine-1-carbonyl)-N-(1-benzylpiperidin-4-yl)picolinamide]",< 500
13,"N#Cc1ccc(CN2CC[C@@H](NC(=O)c3ccc(C(=O)N4CCN(Cc5ccc(F)cc5)CC4)cn3)C2)cc1 [Compound 118, (R)-N-(1-(4-cyanobenzyl)pyrrolidin-3-yl)-5-(4-(4-fluorobenzyl)piperazine-1-carbonyl)picolinamide]",< 500
14,"COc1ccc(OC2CCN(C(=O)c3ccc(C(=O)NC4CCN(Cc5ccc(C#N)cc5)CC4)cn3)CC2)c([N+](=O)[O-])c1 [Compound 378, N-(1-(4-cyanobenzyl)piperidin-4-yl)-6-(4-(4-methoxy-2-nitrophenoxy)piperidine-1-carbonyl)nicotinamide]",< 500
15,"O=C(NC1CCN(Cc2ccc(F)cc2)CC1)c1cccc(C(=O)NC2CCN(Cc3ccc(F)cc3)CC2)n1 [Compound 87, N2,N6-bis(1-(4-fluorobenzyl)piperidin-4-yl)pyridine-2,6-dicarboxamide]",1000 to 5000
16,"N#Cc1ccc(Oc2ccc(NC(=O)c3ccc(C(=O)N4CCC(C(=O)c5ccc(F)cc5F)CC4)nc3)nc2)cc1 [Compound 469, N-(5-(4-cyanophenoxy)pyridin-2-yl)-6-(4-(2,4-difluorobenzoyl)piperidine-1-carbonyl)nicotinamide]",< 500
17,"N#Cc1ccc(O[C@H]2CC[C@@H](NC(=O)c3ccc(C(=O)N4CCC(Oc5cccc(NC(=O)C6CC6)c5)CC4)nc3)CC2)cc1 [Compound 434, N-((cis)-4-(4-cyanophenoxy)cyclohexyl)-6-(4-(3-(cyclopropanecarboxamido)phenoxy)piperidine-1-carbonyl)nicotinamide]",< 500
18,"N#Cc1ccc(CN2CC[C@H](NC(=O)c3ccc(C(=O)N4CCN(Cc5ccc(F)cc5)CC4)cn3)C2)cc1 [Compound 123, (S)-N-(1-(4-cyanobenzyl)pyrrolidin-3-yl)-5-(4-(4-fluorobenzyl)piperazine-1-carbonyl)picolinamide]",< 500
19,"CC(=O)c1ccc(Oc2ccc(NC(=O)c3ccc(C(=O)N4CCN(c5ccc(S(C)(=O)=O)cc5)CC4)nc3)cn2)cc1 [Compound 487, N-(6-(4-acetylphenoxy)pyridin-3-yl)-6-(4-(4-(methylsulfonyl)phenyl)piperazine-1-carbonyl)nicotinamide]",1000 to 5000
20,"COc1ccc(N2CCC(NC(=O)c3ccc(C(=O)N4CCC(Oc5ccc(C#N)cc5)CC4)nc3)CC2)cc1 [Compound 423, 6-(4-(4-cyanophenoxy)piperidine-1-carbonyl)-N-(1-(4-methoxyphenyl)piperidin-4-yl)nicotinamide]",< 500

# Continued, values first:
row,EC50 [nM],SMILES
1,500 to 1000,"O=C(Nc1ccc(OCc2ccccc2)cc1)c1ccc(C(=O)N2CCN(Cc3ccc(F)cc3)CC2)cn1 [Compound 27, N-(4-benzyloxyphenyl)-5-(4-(4-fluorobenzyl)piperazine-1-carbonyl)picolinamide]"
2,< 500,"N#Cc1ccc(OC2CCN(C(=O)c3ccc(C(=O)N[C@H]4CC[C@@H](Oc5ccc(F)cc5)CC4)nc3)CC2)cc1 [Compound 303, 5-(4-(4-cyanophenoxy)piperidine-1-carbonyl)-N-((cis)-4-(4-fluorophenoxy)cyclohexyl)picolinamide]"
3,< 500,"N#Cc1ccc(OC2CCN(C(=O)c3ccc(C(=O)NC4CCN(Cc5ccc(F)cc5)CC4)nc3)CC2)cc1 [Compound 200, 5-(4-(4-cyanophenoxy)piperidine-1-carbonyl)-N-(1-(4-fluorobenzyl)piperidin-4-yl)picolinamide]"
4,< 500,"CS(=O)(=O)c1ccc(OC2CCN(C(=O)c3ccc(C(=O)Nc4ccc(S(=O)(=O)c5ccc(F)cc5)nc4)nc3)CC2)cc1 [Compound 261, N-(6-(4-fluorophenylsulfonyl)pyridin-3-yl)-5-(4-(4-(methylsulfonyl)phenoxy)piperidine-1-carbonyl)picolinamide]"
5,1000 to 5000,"N#Cc1ccc(CN2CCC(NC(=O)c3ccc(N4CCN(Cc5ccc(F)cc5)CC4)nn3)CC2)cc1 [Compound 491, N-(1-(4-cyanobenzyl)piperidin-4-yl)-6-(4-(4-fluorobenzyl)piperazin-1-yl)pyridazine-3-carboxamide]"
6,< 500,"COc1ccc(C(=O)C2CCN(C(=O)c3ccc(C(=O)NC4CCN(Cc5ccc(OC(F)(F)F)cc5)CC4)cn3)CC2)cc1 [Compound 430, 6-(4-(4-methoxybenzoyl)piperidine-1-carbonyl)-N-(1-(4-(trifluoromethoxy)benzyl)piperidin-4-yl)nicotinamide]"
7,< 500,"O=C(NC1CCN(Cc2ccc(OC(F)(F)F)cc2)CC1)c1ccc(C(=O)N2CCC(S(=O)(=O)c3ccc(F)cc3)CC2)nc1 [Compound 470, 6-(4-(4-fluorophenylsulfonyl)piperidine-1-carbonyl)-N-(1-(4-(trifluoromethoxy)benzyl)piperidin-4-yl)nicotinamide]"
8,< 500,"CC(=O)c1ccc(OC2CCN(C(=O)c3ccc(C(=O)NC4CCN(Cc5ccc(C#N)cc5)CC4)nc3)CC2)cc1 [Compound 358, 5-(4-(4-acetylphenoxy)piperidine-1-carbonyl)-N-(1-(4-cyanobenzyl)piperidin-4-yl)picolinamide]"
9,1000 to 5000,"O=C(NC1CCN(Cc2ccccc2)CC1)c1ccc(C(=O)N2CCN(c3ccccc3)CC2)cn1 [Compound 97, N-(1-benzylpiperidin-4-yl)-5-(4-phenylpiperazine-1-carbonyl)picolinamide]"
10,5000 to 10000,"N#Cc1ccc(CN2CCC(NC(=O)c3ccc(Nc4ccc(-c5ccccc5)cc4)cn3)CC2)cc1 [Compound 109, 5-(biphenyl-4-ylamino)-N-(1-(4-cyanobenzyl)piperidin-4-yl)picolinamide]"
11,< 500,"COc1ccc(C(=O)C2CCN(C(=O)c3ccc(C(=O)NC4CCN(Cc5cccc(OC(F)(F)F)c5)CC4)cn3)CC2)cc1 [Compound 424, 6-(4-(4-methoxybenzoyl)piperidine-1-carbonyl)-N-(1-(3-(trifluoromethoxy)benzyl)piperidin-4-yl)nicotinamide]"
12,500 to 1000,"CS(=O)(=O)c1ccc(OC2CCN(C(=O)c3ccc(C(=O)NC4CCN(Cc5ccc(N6CCCC6)cc5)CC4)cn3)CC2)cc1 [Compound 230, 6-(4-(4-(methylsulfonyl)phenoxy)piperidine-1-carbonyl)-N-(1-(4-(pyrrolidin-1-yl)benzyl)piperidin-4-yl)nicotinamide]"
13,< 500,"O=C(Nc1ccc(Oc2ccc(F)cc2)nc1)c1ccc(C(=O)N2CCC(Oc3ccc(C(=O)C4CC4)cc3)CC2)nc1 [Compound 457, 6-(4-(4-(cyclopropanecarbonyl)phenoxy)piperidine-1-carbonyl)-N-(6-(4-fluorophenoxy)pyridin-3-yl)nicotinamide]"
14,< 500,"O=C(NC1CCN(Cc2ccc(F)cc2)CC1)c1ccc(C(=O)N2CCC(C(=O)c3ccc(-n4cccn4)cc3)CC2)nc1 [Compound 392, 6-(4-(4-(1H-pyrazol-1-yl)benzoyl)piperidine-1-carbonyl)-N-(1-(4-fluorobenzyl)piperidin-4-yl)nicotinamide]"
